Results from patent US20240360113A1, “AMINOARYL-INTEGRIN AGONISTS COMPOUNDS” (Texas Heart Institute, priority 2021, published 2024).

Tests used:
α4β1/VCAM-1 = target: T1, α4β1/VCAM-1 (Homo sapiens, UniProt P05556+P13612); assay: Static cell adhesion assay, Jurkat cells on VCAM-1 (VLA-4 agonist activity); format: cell-based; conditions: EC50 relative to THI0349 (average 11 uM) run on the same plate; Jurkat cells, 50% FBS
T1 construct: The Jurkat (VCAM-1 assays) and HSB (ICAM-1 assays) cell lines were obtained from American Type Culture Collection; endogenous in cells; host or cells: Jurkat (ATCC)
T1 sequence (P13612 34-1032): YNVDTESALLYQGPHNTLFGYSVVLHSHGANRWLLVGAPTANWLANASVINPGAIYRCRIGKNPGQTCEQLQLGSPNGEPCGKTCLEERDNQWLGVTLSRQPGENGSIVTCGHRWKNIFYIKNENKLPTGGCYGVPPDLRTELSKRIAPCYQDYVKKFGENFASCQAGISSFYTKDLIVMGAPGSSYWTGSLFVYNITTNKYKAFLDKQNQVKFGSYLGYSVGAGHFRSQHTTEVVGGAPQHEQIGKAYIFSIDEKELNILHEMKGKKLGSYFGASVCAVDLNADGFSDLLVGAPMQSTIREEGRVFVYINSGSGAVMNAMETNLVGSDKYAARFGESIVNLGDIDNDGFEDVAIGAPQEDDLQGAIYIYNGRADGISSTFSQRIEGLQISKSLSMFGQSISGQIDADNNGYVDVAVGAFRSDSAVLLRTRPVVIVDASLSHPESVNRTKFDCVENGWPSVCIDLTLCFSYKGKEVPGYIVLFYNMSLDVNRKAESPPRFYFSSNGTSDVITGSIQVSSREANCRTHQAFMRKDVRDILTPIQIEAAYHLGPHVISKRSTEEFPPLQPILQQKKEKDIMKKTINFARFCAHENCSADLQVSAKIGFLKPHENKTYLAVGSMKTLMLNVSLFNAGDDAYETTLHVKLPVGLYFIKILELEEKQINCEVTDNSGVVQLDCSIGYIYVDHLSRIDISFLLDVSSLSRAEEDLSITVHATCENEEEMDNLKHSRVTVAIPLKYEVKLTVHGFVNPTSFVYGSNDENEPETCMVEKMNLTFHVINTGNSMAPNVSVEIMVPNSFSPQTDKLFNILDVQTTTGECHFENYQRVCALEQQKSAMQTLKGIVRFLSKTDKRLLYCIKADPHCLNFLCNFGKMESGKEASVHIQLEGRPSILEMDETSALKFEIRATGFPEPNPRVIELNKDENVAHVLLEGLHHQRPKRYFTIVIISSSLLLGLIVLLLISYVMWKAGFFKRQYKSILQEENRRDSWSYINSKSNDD
T1 sequence (P05556 21-798): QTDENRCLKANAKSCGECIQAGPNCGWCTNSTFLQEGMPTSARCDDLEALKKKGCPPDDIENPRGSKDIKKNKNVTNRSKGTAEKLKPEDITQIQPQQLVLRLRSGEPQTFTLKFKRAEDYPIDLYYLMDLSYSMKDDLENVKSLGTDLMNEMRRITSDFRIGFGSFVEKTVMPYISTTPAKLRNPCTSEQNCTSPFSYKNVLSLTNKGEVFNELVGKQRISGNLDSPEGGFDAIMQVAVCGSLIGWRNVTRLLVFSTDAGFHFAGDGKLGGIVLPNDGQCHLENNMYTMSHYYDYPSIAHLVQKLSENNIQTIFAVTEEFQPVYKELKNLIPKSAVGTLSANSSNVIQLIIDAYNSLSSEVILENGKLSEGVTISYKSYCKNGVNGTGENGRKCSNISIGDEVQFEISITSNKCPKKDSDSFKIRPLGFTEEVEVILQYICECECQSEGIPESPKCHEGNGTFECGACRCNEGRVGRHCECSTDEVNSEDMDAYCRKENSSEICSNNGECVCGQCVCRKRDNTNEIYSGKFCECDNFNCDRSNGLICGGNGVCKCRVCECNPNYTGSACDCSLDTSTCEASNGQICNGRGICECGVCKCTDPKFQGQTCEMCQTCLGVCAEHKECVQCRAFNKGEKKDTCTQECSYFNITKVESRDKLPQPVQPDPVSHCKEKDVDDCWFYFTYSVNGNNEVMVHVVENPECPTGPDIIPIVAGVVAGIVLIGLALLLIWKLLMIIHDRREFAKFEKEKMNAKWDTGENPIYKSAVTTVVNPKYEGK
Experimental: (§1) For in vitro cell adhesion assays, compounds were dissolved in DMSO to make a series of stock solutions such that a 1:100 dilution in assay buffer would yield the desired final working concentrations in 1% DMSO (vehicle). Human VCAM-1 and ICAM-1 were purchased from R&D Systems (Minneapolis, MN). The Jurkat (VCAM-1 assays) and HSB (ICAM-1 assays) cell lines were obtained from American Type Culture Collection (Manassas, VA) and were maintained in recommended culture media.
(§2) Assays were performed as previously described in Vanderslice et al., (2010), Biochem Biophys Res Commun 400, 619-624; and Vanderslice et al., (2013) J Biol Chem 288, 19414-19428. VCAM-1 or ICAM-1 ligand in 50 μL of 50 mM Tris-HCl (pH 7.4), 150 mM NaCl, (TBS) was added to wells of a 96-well plate and allowed to coat overnight at 4° C. To maximize the window to evaluate agonist activity, a sub-optimal coating concentration of ligand was used, typically 0.5 and 5 μg/mL in 50 μL TBS for VCAM-1 and ICAM-1 respectively. This ligand concentration corresponded approximately to that which would yield <5% adhesion as determined by dose-response curves. Briefly, 2×10^6 cells were labeled for 30 minutes with calcein-AM (Molecular Probes), washed, resuspended in binding buffer, and added to triplicate wells of ligand-coated plates (2×10^5 cells/well) that had been blocked with 2% BSA. After a 30-minute incubation at 37° C., the plates were washed 3 times with binding buffer, the adherent cells were lysed, and fluorescence was measured on a Tecan Safire^2 plate reader. The binding buffer was PBS with 1 mM MgCl2, 50% FBS for α4β1/VCAM-1 assays and PBS with 2 mM MgCl2, 5 mM EGTA, 50% FBS for αLβ2/ICAM-1 assays. EC50 is defined as the concentration of compound required to achieve 50% of the maximal response.

αLβ2/ICAM-1 = target: T2, αLβ2/ICAM-1 (Homo sapiens, UniProt P05107+P20701); assay: Static cell adhesion assay, HSB cells on ICAM-1 (LFA-1; LAD); format: cell-based; conditions: RFU of compound / RFU of THI0349, both at the same concentration
T2 construct: The Jurkat (VCAM-1 assays) and HSB (ICAM-1 assays) cell lines were obtained from American Type Culture Collection; endogenous in cells; host or cells: HSB (ATCC)
T2 sequence (P20701 26-1170): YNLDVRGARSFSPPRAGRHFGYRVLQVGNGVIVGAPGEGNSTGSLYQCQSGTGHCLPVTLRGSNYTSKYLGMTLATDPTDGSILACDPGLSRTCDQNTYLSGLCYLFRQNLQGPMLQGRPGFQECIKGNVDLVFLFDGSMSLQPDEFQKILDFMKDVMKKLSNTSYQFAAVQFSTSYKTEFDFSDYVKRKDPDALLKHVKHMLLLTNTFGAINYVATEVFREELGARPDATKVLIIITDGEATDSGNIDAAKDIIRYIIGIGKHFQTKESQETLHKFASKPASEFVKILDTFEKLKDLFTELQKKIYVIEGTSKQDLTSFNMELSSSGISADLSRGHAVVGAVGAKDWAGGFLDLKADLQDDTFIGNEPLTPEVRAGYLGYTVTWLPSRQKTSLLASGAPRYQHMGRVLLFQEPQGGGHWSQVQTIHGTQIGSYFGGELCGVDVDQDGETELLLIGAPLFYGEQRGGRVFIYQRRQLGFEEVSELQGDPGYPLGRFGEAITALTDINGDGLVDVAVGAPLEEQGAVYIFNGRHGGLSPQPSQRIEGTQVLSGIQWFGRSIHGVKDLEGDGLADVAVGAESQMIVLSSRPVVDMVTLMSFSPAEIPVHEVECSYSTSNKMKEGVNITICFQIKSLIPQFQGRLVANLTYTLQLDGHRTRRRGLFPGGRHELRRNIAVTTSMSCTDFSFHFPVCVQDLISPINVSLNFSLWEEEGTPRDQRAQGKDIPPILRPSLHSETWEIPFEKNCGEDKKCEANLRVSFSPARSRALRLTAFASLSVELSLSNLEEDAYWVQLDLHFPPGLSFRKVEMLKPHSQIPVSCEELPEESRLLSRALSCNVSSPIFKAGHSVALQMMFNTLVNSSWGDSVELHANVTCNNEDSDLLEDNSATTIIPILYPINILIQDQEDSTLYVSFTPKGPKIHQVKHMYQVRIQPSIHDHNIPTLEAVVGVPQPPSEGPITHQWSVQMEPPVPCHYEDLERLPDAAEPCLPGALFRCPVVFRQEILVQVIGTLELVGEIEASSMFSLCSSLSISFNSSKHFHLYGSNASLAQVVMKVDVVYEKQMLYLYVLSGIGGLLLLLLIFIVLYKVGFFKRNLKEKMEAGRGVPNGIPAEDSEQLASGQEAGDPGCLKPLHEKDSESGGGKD
T2 sequence (P05107 23-769): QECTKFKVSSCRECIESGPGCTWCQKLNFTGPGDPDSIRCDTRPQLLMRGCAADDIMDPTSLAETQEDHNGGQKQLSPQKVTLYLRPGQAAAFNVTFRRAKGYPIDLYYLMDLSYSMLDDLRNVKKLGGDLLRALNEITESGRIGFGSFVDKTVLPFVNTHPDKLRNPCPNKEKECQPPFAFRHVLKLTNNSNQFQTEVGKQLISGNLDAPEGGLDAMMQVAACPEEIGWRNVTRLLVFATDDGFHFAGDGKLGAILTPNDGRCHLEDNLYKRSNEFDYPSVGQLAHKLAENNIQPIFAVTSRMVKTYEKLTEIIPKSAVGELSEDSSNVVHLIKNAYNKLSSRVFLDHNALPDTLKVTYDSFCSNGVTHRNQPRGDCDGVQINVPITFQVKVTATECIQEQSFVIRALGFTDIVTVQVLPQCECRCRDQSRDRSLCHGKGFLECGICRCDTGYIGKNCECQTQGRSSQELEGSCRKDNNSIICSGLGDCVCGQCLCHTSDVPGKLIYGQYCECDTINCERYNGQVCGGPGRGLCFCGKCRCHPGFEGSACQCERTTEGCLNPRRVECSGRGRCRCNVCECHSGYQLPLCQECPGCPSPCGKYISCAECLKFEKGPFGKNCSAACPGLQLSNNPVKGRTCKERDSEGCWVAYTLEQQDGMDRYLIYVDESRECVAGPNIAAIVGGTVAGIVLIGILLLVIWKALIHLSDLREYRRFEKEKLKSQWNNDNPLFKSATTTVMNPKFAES
Experimental: as §1, §2
In relation to LAD (Leukocyte Adhesion Deficiency), LFA-1 ratios are determined by dividing the relative fluorescence units (RFU) of each compound at a concentration of 3 μM over that of the reference standard of THI0349, also at 3 μM, (RFU Compound/RFU of THI0349). Log Ps were calculated by either Chemdraw® version 12 (CambridgeSoft) or ACD/Chemsketch® (ACD/Labs).

SMILES	Group against VCAM (α4β1/VCAM-1)	LAD Raw Fluorescence Units against LFA-1; Dose 3 µM; Ratio of raw counts Compound/THI0349 (αLβ2/ICAM-1)
COc1cccc(CN(Cc2cccc(OC)c2)c2nc(COCCOCCN3CCOCC3)cs2)c1 [Compound 61, N,N-bis(3-methoxybenzyl)-4-((2-(2-morpholinoethoxy)ethoxy)methyl)thiazol-2-amine]	I (Group I maintains at least the same potency or better up to more than twice that of the EC50 of THI0349 ran on the same plate)	1.9
COc1cccc(CN(Cc2ccc(-n3cccn3)cc2)c2nc(CN3CCOCC3)cs2)c1 [Compound 75, N-(4-(1H-pyrazol-1-yl)benzyl)-N-(3-methoxybenzyl)-4-(morpholinomethyl)thiazol-2-amine]	I (Group I maintains at least the same potency or better up to more than twice that of the EC50 of THI0349 ran on the same plate)	0.59
COc1cccc(CN(Cc2cccc(OC)c2)c2nc(COCCOCCN3CCCCC3)cs2)c1 [Compound 62, N,N-bis(3-methoxybenzyl)-4-((2-(2-(piperidin-1-yl)ethoxy)ethoxy)methyl)thiazol-2-amine]	I (Group I maintains at least the same potency or better up to more than twice that of the EC50 of THI0349 ran on the same plate)	0.37
COc1ccc(CCNC(=O)c2coc(N(Cc3cccc(OC)c3)Cc3cccc(OC)c3)n2)cc1 [Compound 19, 2-(bis(3-methoxybenzyl)amino)-N-(4-methoxyphenethyl)oxazole-4-carboxamide]	II (Group II is more than twice that of THI0349 but less than five times THI0349's EC50)	0.12
COc1cccc(CN(Cc2cccc(OC)c2)c2nc(COCCOCc3ccccc3)cs2)c1 [Compound 58, 4-((2-(benzyloxy)ethoxy)methyl)-N,N-bis(3-methoxybenzyl)thiazol-2-amine]	I (Group I maintains at least the same potency or better up to more than twice that of the EC50 of THI0349 ran on the same plate)	0.48
CCOC(=O)c1csc(N(Cc2cccc(OC)c2)Cc2ccc3ncccc3c2)n1 [Compound 114, ethyl 2-((3-methoxybenzyl)(quinolin-6-ylmethyl)amino)thiazole-4-carboxylate]	II (Group II is more than twice that of THI0349 but less than five times THI0349's EC50)	0.39
COc1cccc(CN(Cc2cccc(OC)c2)c2nc(COCCOc3cccc(N(C)C)c3)cs2)c1 [Compound 48, 4-((2-(3-(dimethylamino)phenoxy)ethoxy)methyl)-N,N-bis(3-methoxybenzyl)thiazol-2-amine]	I (Group I maintains at least the same potency or better up to more than twice that of the EC50 of THI0349 ran on the same plate)	0.43
OCc1coc(N(Cc2cccs2)Cc2cccs2)n1 [Compound 25, (2-(bis(thiophen-2-ylmethyl)amino)oxazol-4-yl)methanol]	II (Group II is more than twice that of THI0349 but less than five times THI0349's EC50)	0.74
COc1cccc(COc2ccc(N(Cc3cccc(OC)c3)Cc3cccc(OC)c3)cc2)c1 [Compound 91, N,N-bis(3-methoxybenzyl)-4-((3-methoxybenzyl)oxy)aniline]	III (Group III more than five times the EC50 of THI0349)	0.09
COc1cccc(CN(Cc2cccc(OC)c2)c2nc(CN3CCN(C)CC3)cs2)c1 [Compound 69, N,N-bis(3-methoxybenzyl)-4-((4-methylpiperazin-1-yl)methyl)thiazol-2-amine]	II (Group II is more than twice that of THI0349 but less than five times THI0349's EC50)	0.33
COc1cccc(CN(Cc2cccc(OC)c2)c2nc(COCCOc3ccc(Cl)cc3)cs2)c1 [Compound 49, 4-((2-(4-chlorophenoxy)ethoxy)methyl)-N,N-bis(3-methoxybenzyl)thiazol-2-amine]	II (Group II is more than twice that of THI0349 but less than five times THI0349's EC50)	0.63
COc1cccc(CN(Cc2cccc(OC)c2)c2nc3c(s2)CN(C(=O)OC(C)(C)C)CC3)c1 [Compound 70, tert-butyl 2-(bis(3-methoxybenzyl)amino)-6,7-dihydrothiazolo[5,4-c]pyridine-5(4H)-carboxylate]	III (Group III more than five times the EC50 of THI0349)	0.14
CCOC(=O)c1csc(N(C)Cc2cccc(OC)c2)n1 [Compound 106, ethyl 2-((3-methoxybenzyl)(methyl)amino)thiazole-4-carboxylate]	III (Group III more than five times the EC50 of THI0349)	0.05
COc1cccc(CN(Cc2cccc(OC)c2)c2nc(CCN3CCOCC3)cs2)c1 [Compound 84, N,N-bis(3-methoxybenzyl)-4-(2-morpholinoethyl)thiazol-2-amine]	I (Group I maintains at least the same potency or better up to more than twice that of the EC50 of THI0349 ran on the same plate)	0.14
COC(=O)c1nc(N(Cc2cccc(OC)c2)Cc2cccc(OC)c2)sc1C [Compound 101, methyl 2-(bis(3-methoxybenzyl)amino)-5-methylthiazole-4-carboxylate]	II (Group II is more than twice that of THI0349 but less than five times THI0349's EC50)	0.03
COCCOc1cccc(CN(Cc2cccc(OCCOC)c2)c2nc(C)cs2)c1 [Compound 30, N,N-bis(3-(2-methoxyethoxy)benzyl)-4-methylthiazol-2-amine]	III (Group III more than five times the EC50 of THI0349)	1.2
COc1cccc(COc2cccc(N(Cc3cccc(OC)c3)Cc3cccc(OC)c3)c2)c1 [Compound 92, N,N-bis(3-methoxybenzyl)-3-((3-methoxybenzyl)oxy)aniline]	III (Group III more than five times the EC50 of THI0349)	0.6
CCOC(=O)c1csc(N(Cc2cccc(OC)c2)Cc2cccc(OC)c2)n1 [Compound 102, ethyl 2-(bis(3-methoxybenzyl)amino)thiazole-4-carboxylate]	II (Group II is more than twice that of THI0349 but less than five times THI0349's EC50)	0.5
COc1cccc(CN(Cc2ccc3ncccc3c2)c2nc(CN3CCOCC3)cs2)c1 [Compound 76, N-(3-methoxybenzyl)-4-(morpholinomethyl)-N-(quinolin-6-ylmethyl)thiazol-2-amine]	II (Group II is more than twice that of THI0349 but less than five times THI0349's EC50)	0.31
CCOC(=O)c1csc(N(Cc2cccc(OC)c2)Cc2ccc3[nH]ncc3c2)n1 [Compound 116, ethyl 2-(((1H-indazol-5-yl)methyl)(3-methoxybenzyl)amino)thiazole-4-carboxylate]	III (Group III more than five times the EC50 of THI0349)	0.09
COc1cccc(CN(Cc2cccc(OC)c2)c2nc(COCCOCCOCc3ccccc3)cs2)c1 [Compound 53, 4-((2-(2-(benzyloxy)ethoxy)ethoxy)methyl)-N,N-bis(3-methoxybenzyl)thiazol-2-amine]	I (Group I maintains at least the same potency or better up to more than twice that of the EC50 of THI0349 ran on the same plate)	1.06
